According to patent US10071163B2, “Compositions and methods for selective delivery of oligonucleotide molecules to specific neuron types” (nLife Therapeutics, S.L., priority 2010, dated 2018):

How the values were obtained:
[1] = tested on: noradrenergic neurons of the locus coeruleus; test: Confocal localization of Cy3 label in locus coeruleus after ICV administration; type: in vivo, mice; conditions: FIG. 18
Experimental: (§1) For the infusion of siRNAs, C57BV6Ncr1 male mice were deeply anesthetized with isofluorane and placed in a mouse adaptor (Stoelting ref. 51625) attached to a stereotaxic frame with digital display readout (David Kopf Instruments, model 940). […] The needle was left in the place for 3 min to avoid upward flow of the siRNA solution.
(§2) The mice were perfused with 4% PFA at two different time points, 1 and 3 hours post-administration of the siRNA. Brains were dissected and post-fixed in a solution of 4% PFA for 24 h at 4° C. Then brains were placed in a 30% sucrose solution for 48 h at 4° C. Brains were frozen in 2-methylbutane at −30 to −40° C. and stored at −80° C. Brains were sectioned in a cryostat Leica CM3050 S ([…]). Free-floating sections were washed and stored at 4° C. in 0.1 M PBS and 0.001% sodium azide.
(§3) Sections were washed in PBS, blocked with 2% goat serum and 0.1% Triton and incubated with anti-TH antibody (1:800 mouse) overnight at 4° C. After washing, sections were incubated with secondary antibody Alexa Fluor 647 anti-mouse (Invitrogen) for 1 h at room temperature. Finally sections were mounted with Dako Fluorescent Mounting Medium and analyzed using a confocal spectral microscope (FV 1000 Olympus). Pictures were generated using FV 10-ASW 1.7 Viewer.

[2] = tested on: dopaminergic neurons of the substantia nigra pars compacta; test: Confocal localization of Cy3 label in substantia nigra after ICV administration; type: in vivo, mice; conditions: FIG. 17
Experimental: as §1, §2, §3

5-HT1AR [3] = molecular target: T1, 5-HT1AR (Mus musculus, UniProt Q64264); test: Microdialysis of 5-HT in mPFC after 8-OH-DPAT, intranasal siRNA; conditions: intranasal 15 μg/5 μl in each nostril; 8-OH-DPAT 0.5 mg/kg i.p.; FIG. 12B
T1 sequence (Q64264 1-421): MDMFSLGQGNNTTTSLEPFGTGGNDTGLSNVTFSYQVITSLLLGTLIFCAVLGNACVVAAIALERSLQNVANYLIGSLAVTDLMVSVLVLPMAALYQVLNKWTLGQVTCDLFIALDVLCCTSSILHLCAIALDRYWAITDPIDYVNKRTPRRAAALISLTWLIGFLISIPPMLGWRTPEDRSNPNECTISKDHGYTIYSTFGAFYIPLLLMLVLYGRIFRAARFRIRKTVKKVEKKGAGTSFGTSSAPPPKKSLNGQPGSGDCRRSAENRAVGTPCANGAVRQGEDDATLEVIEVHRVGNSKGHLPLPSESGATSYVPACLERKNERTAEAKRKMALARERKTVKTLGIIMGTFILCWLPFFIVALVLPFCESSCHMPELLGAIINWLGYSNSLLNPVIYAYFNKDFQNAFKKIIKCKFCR
Experimental: To evaluate 5-HT release, an intracerebral microdyalisis procedure was used as has been described in the state of the art. In brief, the shaft of the probe was made up of 15-mm long, 25-gauge (501 μm OD, 300 μm ID) stainless-steel tubing. The inflow and outflow tubes threaded through the 25 gauge tubing consisted of fused silica capillary tubing of 110 μm OD and 40 μM ID. The upper exposed ends of silica tubing were inserted into 7-mm long, 27 gauge (410 μm OD, 220 μM ID) stainless-steel tubing. Mice were anesthetized with sodium pentobarbital (40 mg/kg, i.p.) and positioned in a stereotaxic frame.
Dialysate samples of 60 μl were collected every 30 min in microcentrifuge vials.
At the completion of dialysis experiments, mice were sacrificed and the brains were immediately removed and frozen at −70° C. Coronal sections (50 μm) of the brain were cut afterwards on a cryostat and stained with cresyl violet, according to standard procedures, for localization of the perfusion site. Only data obtained from animals with histologically correct probe placements were used for subsequent statistical analysis.
The retention time for 5-HT was 3.5-4 min and the detection limit was 2 fmol/sample.
Mice were anesthetized with pentobarbital 40 mg/kg i.p and positioned on their backs. PBS or NLF-siRNA was slowly and gently dropped in alternating nostril with a micropipette tip in 5-ul aliquots.

5-HT1AR [4] = test: [3H]8-OH-DPAT autoradiographic binding of 5-HT1AR protein after i.c.v. infusion; type: in vivo, mice; conditions: 30 μg/2.5 μl/1 day into D3V
Experimental: To assay the density of 5-HT1AR protein we used [^3H]8-OH-DPAT for the autoradiographic visualization of 5-HT1A receptor sites. The experimental incubation conditions for [^3H]8-OH-DPAT have been previously described in the state of the art. Briefly, frozen tissue sections were thawed and dried, preincubated in 170 mM Tris-HCl pH 7.6, 4 mM CaCl2 and 0.01% ascorbic acid for 30 minutes at room temperature, and then incubated in the same buffer, including 1 nM [^3H]—OH-DPAT (234.0 Ci/mmol) and 10^−5 M pargyline for 60 minutes at room temperature. Non-specific binding was defined as that remaining in the presence of 10^−5 M 5-HT. After incubation and washing, tissue sections were dipped in distilled ice-cold water and dried rapidly under a cold air stream. Tissues were exposed to tritium-sensitive film together with plastic ^3H-standards for 60 days at 4° C.
A set of molecules (vehicle, ns naked siRNA, ns NLF-siRNA, naked siRNA and NLF-siRNA groups), as described in example 3, were infused at 30 μg/2.5 μl/1 day (2.3 nmoles) into dorsal 3rd ventricle (D3V) at the following stereotaxic coordinates (in mm: AP: −2.0, L: 0, DV: −2.1) using similar mice strain and infusion system of example 2. […]

[5] = tested on: presynaptic 5-HT1A receptor; test: Microdialysis of 5-HT in medial prefrontal cortex after acute fluoxetine, i.c.v. siRNA; type: in vivo, mice; conditions: after systemic fluoxetine 20 mg/kg i.p.; siRNA 30 μg i.c.v.; FIG. 9
Source text: The increase of extracellular 5-HT produced by reuptake blockade of serotonin transporter (SERT) activates 5-HT1A autoreceptors in the midbrain raphe nuclei, suppressing cell firing and terminal release, an effect that attenuates the extracellular 5-HT increase produced by reuptake blockade. Consequently, the activation of postsynaptic serotonin receptors responsible for the therapeutic effect is lower than expected. It is known that the blockade of these negative feedback mechanisms with 5-HT1A receptor antagonists (i.e pindolol) potentiates the 5-HT increase produced by SSRIs and, therefore, might serve to accelerate the clinical effects of SSRIs.

5-HT1AR [6] = molecular target: T1, 5-HT1AR; test: 8-OH-DPAT-induced hypothermia after i.c.v. infusion into D3V; type: in vivo, mice; parameters: we used [^3H]8-OH-DPAT for the autoradiographic visualization of 5-HT1A receptor sites; from tissue; host or cells: mouse brain (dorsal raphe nucleus, prefrontal cortex, hippocampus): living animal or frozen 14 µm sections; conditions: 30 μg/2.5 μl/1 day into D3V; 24 h after infusion; 8-OH-DPAT 1 mg/kg i.p.; FIG. 6
Experimental: To test a functional measure of the pre-synaptic 5-HT1AR activity, we evaluated the hypothermia response induced by (R)-(+)-8-hydroxy-2-(di-n-propylamino)tetralin hydrobromide (8-OH-DPAT, a selective 5-HT1AR agonist) 24 hs after the infusion of a pool of naked siRNA or NLF-siRNA into dorsal raphe nucleus (DRN, 0.3 μg (0.02 nmoles)/1 μl/2 days). […] Mice were kept in individual cages in experimental room at stable temperature of 22° C. 1 h before the experiment. All experiments were carried out between 10:00 a.m. and 14:00 p.m. Body temperature was measured by inserting a lubricated probe into the rectum 5 min before the reading of the temperature while the mice was freely moving. The readings were obtained with a digital thermometer. A basal value was measured 5 min before and 15, 30, 60 and 120 min after 8-OH-DPAT administration. […] Body temperature was assessed 24 hs after the last application of 5-HT1A-targeting siRNAs into DRN in different groups of mice and in their respective controls. […]
To evaluate the NLF-siRNA effect on the functional features of 5-HT1AR we assayed hypothermia response induced by 8-OH-DPAT and 5-HT release in the medial prefrontral cortex (mPFC). We evaluated the hypothermia response induced by 8-OH-DPAT 24 hs after the infusion of a pool of naked siRNAs or NLF-siRNA (as described in example 2) into dorsal 3rd ventricle (D3V, 30 μg/2.5 μl/1 day).

[7] = 1 hour after ICV administration, 100 μg

## NLF-NS-siRNA-Cy3: non-sense siRNA (SEQ ID NO 69/70) conjugated to nomifensin, antisense strand carrying Cy3 (chain 1 AGUACUGCUUACGAUACGG; chain 2 CCGUAUCGUAAGCAGUACU; conjugated to nomifensin, Cy3 label, positions not given here)
[1]; [7]
  Cy3 red labeling in TH-positive noradrenergic neurons: can be detected mainly within TH-positive noradrenergic neurons
[1]; 3 hours after ICV injection
  Cy3 red intracellular labeling in locus coeruleus: any red intracellular labeling can not be detected
[2]; [7]
  Cy3 red labeling in TH-positive nigral neurons: can be detected within TH-positive nigral neurons
  Cy3 red labeling in gabaergic neurons of the substantia nigra reticulata: not in the gabaergic neurons
[2]; 3 hours after ICV injection
  Cy3 red intracellular labeling in substantia nigra: any red intracellular labeling can not be detected

## ns NLF-siRNA: nonsense siRNA (SEQ ID NO 56/57) conjugated to a group of formula (I) and one targeting agent; control (chain 1 AGUACUGCUUACGAUACGG; chain 2 CCGUAUCGUAAGCAGUACU; further chemistry not given here)
5-HT1AR [3]
  extracellular 5-HT levels in mPFC following systemic 8-OH-DPAT: reduced
5-HT1AR [4]
  knockdown effect on 5-HT1AR: did not show a knockdown effect
[5]
  dyalisate serotonin concentration in medial prefrontal cortex, higher than baseline: ~50%
5-HT1AR [6]
  hypothermia response induced by 8-OH-DPAT: typical curve in the hypothermia response
